What all share (assay): growth of human tumour cells (NCI), 48 h
Assay [1] deals with CCRF-CEM.
Assay [2] concerns SF-268.
Assay [3] concerns HCT-15.
Assay [4] has as its system DMS-114.
Assay [5] relates to HCC 2998.
For assay [6], the system named is SW-620.
For assay [7], the system named is NCI-H226.
Assay [8] deals with M19-MEL.
The test system of assay [9] is NCI-H460.
Assay [10] deals with RXF 393.
In assay [11] the test system is SN12C.
The subject of assay [12] is MOLT-4.
Assay [13] relates to A549.
Assay [14] deals with EKVX.
The subject of assay [15] is SF-539.

Each structure is given as a SMILES string.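 Results reflect a 48-hour exposure of cells in 96-well plates to compound at five concentrations. Here, GI50 denotes the concentration required for 50% inhibition of growth.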 Active and inactive are the calls of the source. Cut-off read from the data, not from the text of the source: active = GI50 up to about 1.1 µM and inactive = higher.

Take `ClC(Cl)=C(Cl)C1(Cl)CC1COCc1ccccc1` (stereo not drawn): the GI50 in [1] was 22.3 µM (inactive); in assay [2] it was 43.3 µM (inactive); in assay [3], 33.3 µM; in assay [4], 20.7 µM (inactive); in assay [5], 31.6 µM (inactive); in assay [6] it was 30.9 µM (inactive). The GI50 in assay [7] was 22.4 µM (inactive); in assay [8] it was 31.4 µM (inactive); in assay [9], 38.5 µM (inactive); in [10], 18.1 µM (inactive); in [11], 39.8 µM (inactive); in assay [12] it was 20.9 µM (inactive). Further, the GI50 is 26.1 µM (inactive) in assay [13], 26.1 µM (inactive) in assay [14] and 51.6 µM (inactive) in [15].

Turning to `NC(=S)N1N=C2CCCCCC[C@@H]2[C@H]1c1ccccc1`, the GI50 in assay [1] was 31.3 µM (inactive); in assay [2], > 100 µM (inactive); in assay [3], 28.4 µM; in [4], 27.1 µM (inactive); in [5], 79.4 µM (inactive); in assay [6], 28.6 µM (inactive). Moreover, the GI50 in assay [7] was 18.6 µM (inactive); in assay [8], 38.5 µM (inactive); in assay [9], 35.2 µM (inactive); in assay [10] it was 95.9 µM (inactive); in [11], 86.1 µM (inactive); in [12] it was 31.8 µM (inactive). In addition, the GI50 in [13] is 24.4 µM (inactive); in assay [14], 27.7 µM (inactive); in [15] it was > 100 µM (inactive).

Regarding `Cc1cc(=O)n(-c2ccccc2C)c(C)n1`, the GI50 was > 100 µM (inactive) in [1]; > 100 µM (inactive) in assay [2]; > 100 µM in [3]; > 100 µM (inactive) in assay [4]; > 100 µM (inactive) in assay [5]; > 100 µM (inactive) in assay [6]. Further, the GI50 in assay [7], in assay [8], in assay [9], in assay [10], in [11] and in assay [12] was > 100 µM (inactive) in each case. Moreover, the GI50 in assay [13], in [14] and in [15] was > 100 µM (inactive) in each case.

`O=C(O)C(CO)NC(=O)n1c2ccccc2c2ccccc21` (stereo not drawn): the GI50 was > 100 µM (inactive) in assay [1]; > 100 µM (inactive) in assay [2]; > 100 µM in assay [3]; > 100 µM (inactive) in assay [4]; > 100 µM (inactive) in assay [5]; > 100 µM (inactive) in [6]. Further, the GI50 in assay [7], in [8], in [9], in assay [10], in assay [11] and in assay [12] was > 100 µM (inactive) in each case. The GI50 in assay [13], in assay [14] and in assay [15] was > 100 µM (inactive) each time.

As for `O=C(N/C(=C\c1cc(Cl)ccc1Cl)c1nc2cc(Cl)ccc2[nH]1)c1ccccc1`, the GI50 is 17 µM (inactive) in assay [1]; 13.8 µM (inactive) in assay [2]; 16.4 µM in assay [3]; 15.4 µM (inactive) in [4]; 18.2 µM (inactive) in assay [5]; 16.9 µM (inactive) in assay [6]. Besides, the GI50 in assay [7] is 17.3 µM (inactive); in assay [8], 16 µM (inactive); in assay [9] it was 15.1 µM (inactive); in assay [10], 15.4 µM (inactive); in assay [11] it was 19.5 µM (inactive); in assay [12], 8.04 µM (inactive). Besides, the GI50 is 16.8 µM (inactive) in [13], 23 µM (inactive) in [14] and 20.1 µM (inactive) in assay [15].

Turning to `COc1cc(C=C2C(=O)OC(C)(C)OC2=O)cc(OC)c1OC`, the GI50 was > 100 µM (inactive) in assay [1]; > 100 µM (inactive) in assay [2]; > 100 µM in assay [3]; > 100 µM (inactive) in assay [4]; > 100 µM (inactive) in assay [5]; > 100 µM (inactive) in [6]. Further, the GI50 in [7], in [8], in assay [9], in assay [10], in assay [11] and in assay [12] was > 100 µM (inactive) throughout. The GI50 in [13], in assay [14] and in assay [15] was > 100 µM (inactive) in each case.

In the case of `O=C(c1nc2ccc(Cl)cc2[nH]c1=O)C(O)c1cccc([N+](=O)[O-])c1` (stereo not drawn), the GI50 in assay [1] was 5.06 µM (inactive); in assay [2], 33.3 µM (inactive); in [3], > 100 µM; in assay [4], 5.98 µM (inactive); in [5], > 100 µM (inactive); in assay [7], > 100 µM (inactive). Also, the GI50 in assay [8] is > 100 µM (inactive); in [9] it was > 100 µM (inactive); in [10], > 100 µM (inactive); in assay [11] it was > 100 µM (inactive); in [12], 35.9 µM (inactive); in [13], > 100 µM (inactive). For the same compound, the GI50 in [14] and in assay [15] was > 100 µM (inactive) in each case.

Turning to `CC1=C(C(=O)Nc2ccccc2C)C(c2ccco2)C(C(=O)Nc2ccccc2C)=C(C)N1C`, the GI50 was 50 µM (inactive) in assay [1]; > 100 µM (inactive) in assay [2]; > 100 µM (inactive) in assay [4]; > 100 µM (inactive) in assay [5]; > 100 µM (inactive) in [6]; > 100 µM (inactive) in assay [7]. For the same compound, the GI50 in [8] was > 100 µM (inactive); in assay [9] it was > 100 µM (inactive); in [10], > 100 µM (inactive); in assay [11] it was > 100 µM (inactive); in assay [12], 51.2 µM (inactive); in assay [13] it was > 100 µM (inactive). Also, the GI50 in assay [14] and in assay [15] was > 100 µM (inactive) each time.

Consider `COc1ccc(NC(=O)CC(=O)N2N=C(N(CCC#N)c3ccccc3Cl)CC2c2ccccc2)cc1` (stereo not drawn), for which the GI50 in [1] was > 100 µM (inactive); in assay [2] it was > 100 µM (inactive); in assay [3] it was > 100 µM; in assay [4], > 100 µM (inactive); in [5] it was > 100 µM (inactive); in assay [6], > 100 µM (inactive). For the same compound, the GI50 in assay [7], in [8], in assay [9], in [10], in assay [11] and in assay [12] was > 100 µM (inactive) each time. Further, the GI50 in assay [13], in assay [14] and in assay [15] was > 100 µM (inactive) each time.

The values above are taken from ChEMBL document CHEMBL1201862, “PubChem BioAssay data set” (2004).
